The values that follow come from patent publication US10300058B2, “Tyrosine kinase inhibitor and uses thereof” (Xuanzhu Pharma Co., Ltd., priority 2014, dated 2019).

The nature of data set [1]: Pharmacokinetics in nude mouse. The format is in vivo. Conditions: female, BALB/c nude, plasma. The procedure: Test animal: female nude mouse (BALB/c), weight: 20-25 g/mouse.
Solvent for intraveneous injection (iv): 5% DMSO+10% PEG400+85% (28% HP-β-CD)
Solvent for intragastric administration (po): 2% HPC+0.1% Tween 80
0.1283 mL and 0.1059 mL 1M hydrochloric acid solution were separately added to adjust pH to 4.
Compound 2, 27: Compound 27 (3.18 mg) and Compound 2 (3.17 mg) were weighed, respectively, and solvent for intraveneous injection was added to prepare a clear and transparent solution at a theoretical concentration of 1.0 mg/mL.
After homogeneous dispersion, a suspension at a theoretical concentration of 1.0 mg/mL was obtained.
Collection time point: 0.083 h, 0.25 h, 0.5 h, 1 h, 2 h, 4 h, 6 h, 8 h after administration.
60 μL whole blood was collected from intraocular canthus at each time point, and was centrifuged at 8000 r/min for 6 min in a low-temperature centrifuge to separate plasma; the plasma was stored in a refrigerator at −80° C.
The plasma sample of Compound 2 was analyzed by means of protein precipitation: 10 μL plasma was transferred to a 1.5 mL EP tube, 10 μL blank plasma was added, and the mixture was mixed homogeneously under vortexing. 200 μL internal standard (acetonitrile solution containing 25 ng/mL CNX-2006) was added; the resultant mixture was vortexted for 3 min, and then centrifuged at 12000 rpm for 5 min; 150 μL supernatant was accurately taken, to which 50 μL purified water was added. The resultant mixture was vortexed for 3 min and analyzed by LC-MS/MS.

Data set [2] concerns H1975 cell (EGFR-T790M/L858R double mutation). Put plainly: In vitro cytologic activity, Celltiter-Glo, H1975 cells. The class given is cell-based, human. As to conditions: for IC50: Homo sapiens, NCI-H1975, 72 h, 72 h, Celltiter-Glo. The procedure: (§1) 1.1 Preparation of Cell Suspension
(§2) Culture medium was removed from culture bottle;
(§3) PBS was added to wash the cells; • pancreatin was added for digestion, and the cells were collected by centrifugation; • the cells were resuspended in a culture medium containing 10% fetal bovine serum, counted and adjusted to a concentration of 2×10^4/mL or 3×10^4/mL (cell viability must be greater than 90%); • the cell suspension was added to a 96-well plate, at 100 μL for each well, i.e., 2000/well for H1975 cell; 3000/well for A431 cell; and • the cells were cultured at 37° C. in 5% CO2 incubator overnight.
(§4) Dilution of a compound in DMSO (or water for injection) • (1) The compound was 5-fold diluted with DMSO from 10 mM to 2 mM, and then 4-fold diluted from 2 mM, to get 10 concentrations; • High control (HC, control without compound inhibition): 0.5% DMSO; • Low control (LC, control with compound inhibition): 1000 nM.
(§5) i. To each well, 99 μL growth medium containing 10% FBS was added, and then 1 μL diluted compound was added, the total volume of the well was […], and the final concentration of the compound was measured.
(§6) The test plate was left at room temperature, and equilibrated for 30 min. 80 μL culture medium was discarded. 60 μL CTG reagent (Celltiter-Glo kit) was added, and shaked for 2 min in a fast shaker, and was placed at room temperature for 10 min. The values were read by Envision instrument.
A general note: In ATP-based viability assays light output follows the ATP content of the culture.

Data set [3] deals with H1975 human non-small cell lung cancer xenograft. Kind of data set: Pharmacodynamics in vivo, H1975 xenograft tumor-bearing nude mice. More on the design: species or system BALB/c nude mouse. As to conditions: PO; for TV (tumor volume) / Body weight After administration / Body weight Before administration: mean ± standard error. An excerpt: Genus: Rodent, Line: BALB/c nude, age: 6-8 weeks, gender: female, body weight: 18-22 g. Provider of experimental animals: Beijing Ankaiyibo Biological Technology Co. Ltd., Production license No. SCXK(Jing) 2012-0009. Quality Certificate No. 11402400000256 […] The tumor cells in logarithmic growth phase were used in tumor inoculation in vivo. […] When the tumor grew into a volume of about 100 mm^3, the animals were grouped and administered, 8 mice per group. […] Test compound solutions were prepared immediately before administration every day. [table] Vernier caliper was used to measure the volume of tumor twice a week. The long diameter and short diameter of tumor were measured. The volume was calculated by the formula: volume=0.5×long diameter×short diameter^2. According to the measurement results, relative tumor volume (RTV) and relative tumor volume increasing rate (T/C) were calculated. RTV=Vt/V0, wherein Vt is the average value of tumor volume on day t after grouping and administration, V0 is the average value of tumor volume at the day when grouping. T/C=TRTV/CRTV×100%, wherein TRTV is the RTV in the treatment group, and CRTV is the RTV in the solvent control group. […] One-Way ANOVA test was carried out by SPSS17.0 statistic software. Tumor volume was analysed in statistics among groups. P<0.05 is indicative of significant difference.

The test system of data set [4] is A431 cell (wild-type EGFR gene). Put plainly: In vitro cytologic activity, Celltiter-Glo, A431 cells. The class given is cell-based. Conditions: Homo sapiens, A-431, 72 h. The procedure: as §1, §2, §3, §4, §5, §6
The target of the next data set is EGFR L858R (Homo sapiens (Human), UniProt P00533, L858R). Put plainly: Mobility Shift Assay, in vitro enzyme-inhibiting activity, EGFR L858R. Conditions: Table 6. The class given is biochemical. The procedure: (§7) 1. Preparation of Reagents
(§8) 2. Preparation of a Compound Solution
(§9) (1) To the second well of a 96-well plate, 5 μL 10 mM compound (dissolved in DMSO) was added, and 95 μL 100% DMSO was added to prepare 100 μL 0.5 mM compound.
(§10) (2) To other wells, 60 μL 100% DMSO was added. 20 μL compound from the second well was added to the third well, and 4-fold dilution was further performed to get 10 diluted concentrations.
(§11) (3) To the first well and the twelfth well of the 96-well plate, 100 μL 100% DMSO was separately added, and the two wells were used as control wells.
(§12) (4) 10 μL from each well of the 96-well plate was added to another 96-well plate, and 90 μL 1-fold kinase buffer was added.
(§13) (5) 5 μL from the 96-well plate was added to another 384-well plate, for example, transferred from A1 well of the 96-well plate to A1 and A2 wells of the 384-well plate, and transferred from A2 well of the 96-well plate to A3 and A4 wells of the 384-well plate, and so on.
(§14) To 384-well plate, 10 μL 2.5-fold enzyme solution was added, and incubated at room temperature for 10 min.
(§15) (5) Kinase reaction and stop
(§16) After incubation at 28° C. for a period of time (depending on kinase), 25 μL stop solution was added.
(§17) 4. Data on percent conversion was read by Caliper.
(§18) (1) Data on enzyme activity was obtained by Caliper program;
(§19) (2) Inhibition rate of enzyme activity was calculated from the data on enzyme activity by the following formula: Inhibition rate(%)=(maximal value−the measured value of a test compound)/(maximal value-minimal value)×100,
(§20) wherein, the maximal value represents the measured value of DMSO control; and the minimal value represents the measured value of blank control.
(§21) (3) Calculation of IC50 value by XLFit excel.

The next data set concerns the target EGFR T790M (Homo sapiens (Human), UniProt P00533, T790M). Kind of data set: Mobility Shift Assay, in vitro enzyme-inhibiting activity, EGFR T790M. The format is biochemical. As to conditions: Table 6. The procedure:
as §7, §8, §9, §10, §11, §12, §13, §14, §15, §16, §17, §18, §19, §20, §21

For a further data set, the target named is EGFR T790M-L858R (Homo sapiens (Human), UniProt P00533, L858R/T790M). Put plainly: Mobility Shift Assay, in vitro enzyme-inhibiting activity, EGFR T790M-L858R. The format is biochemical. As to conditions: Table 6. The procedure: as §7, §8, §9, §10, §11, §12, §13, §14, §15, §16, §17, §18, §19, §20, §21
Another data set concerns the target EGFR (d746-750) (Homo sapiens (Human), UniProt P00533, DEL746-750). Kind of data set: Mobility Shift Assay, in vitro enzyme-inhibiting activity, EGFR (d746-750). As to conditions: Table 6. The class given is biochemical. The procedure: as §7, §8, §9, §10, §11, §12, §13, §14, §15, §16, §17, §18, §19, §20, §21
A further data set addresses EGFR (d746-750)-T790M (Homo sapiens (Human), UniProt P00533, DEL746-750/T790M). Kind of data set: Mobility Shift Assay, in vitro enzyme-inhibiting activity, EGFR (d746-750)-T790M. The class given is biochemical. As to conditions: Table 6. The procedure:
as §7, §8, §9, §10, §11, §12, §13, §14, §15, §16, §17, §18, §19, §20, §21

Another data set addresses wild-type EGFR (WT EGFR) (Homo sapiens (Human), UniProt P00533). Put plainly: Mobility Shift Assay, in vitro enzyme-inhibiting activity, wild-type EGFR. The class given is biochemical. As to conditions: Table 6; Km ATP. The procedure:
as §7, §8, §9, §10, §11, §12, §13, §14, §15, §16, §17, §18, §19, §20, §21

Chain of EGFR (d746-750) (P00533 other isoform, or with tags, fused parts or gaps del 1-668/del 746-750 limits assumed): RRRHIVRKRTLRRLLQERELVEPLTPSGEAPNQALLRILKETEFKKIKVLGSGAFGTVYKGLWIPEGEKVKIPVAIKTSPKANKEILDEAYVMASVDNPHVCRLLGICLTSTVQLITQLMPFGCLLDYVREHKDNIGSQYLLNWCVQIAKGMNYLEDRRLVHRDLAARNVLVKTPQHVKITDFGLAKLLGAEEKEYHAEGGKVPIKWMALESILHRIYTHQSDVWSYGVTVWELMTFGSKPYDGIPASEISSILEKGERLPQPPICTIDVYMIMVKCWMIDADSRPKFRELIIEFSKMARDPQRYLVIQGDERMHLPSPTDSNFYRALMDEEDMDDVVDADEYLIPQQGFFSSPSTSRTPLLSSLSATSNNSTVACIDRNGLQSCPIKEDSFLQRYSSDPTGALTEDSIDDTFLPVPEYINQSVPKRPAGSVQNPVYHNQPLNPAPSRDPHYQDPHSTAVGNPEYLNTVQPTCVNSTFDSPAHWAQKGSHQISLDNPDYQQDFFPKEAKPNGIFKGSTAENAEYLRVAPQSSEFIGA
Chain of EGFR T790M-L858R (P00533 25-1210 T790M/L858R): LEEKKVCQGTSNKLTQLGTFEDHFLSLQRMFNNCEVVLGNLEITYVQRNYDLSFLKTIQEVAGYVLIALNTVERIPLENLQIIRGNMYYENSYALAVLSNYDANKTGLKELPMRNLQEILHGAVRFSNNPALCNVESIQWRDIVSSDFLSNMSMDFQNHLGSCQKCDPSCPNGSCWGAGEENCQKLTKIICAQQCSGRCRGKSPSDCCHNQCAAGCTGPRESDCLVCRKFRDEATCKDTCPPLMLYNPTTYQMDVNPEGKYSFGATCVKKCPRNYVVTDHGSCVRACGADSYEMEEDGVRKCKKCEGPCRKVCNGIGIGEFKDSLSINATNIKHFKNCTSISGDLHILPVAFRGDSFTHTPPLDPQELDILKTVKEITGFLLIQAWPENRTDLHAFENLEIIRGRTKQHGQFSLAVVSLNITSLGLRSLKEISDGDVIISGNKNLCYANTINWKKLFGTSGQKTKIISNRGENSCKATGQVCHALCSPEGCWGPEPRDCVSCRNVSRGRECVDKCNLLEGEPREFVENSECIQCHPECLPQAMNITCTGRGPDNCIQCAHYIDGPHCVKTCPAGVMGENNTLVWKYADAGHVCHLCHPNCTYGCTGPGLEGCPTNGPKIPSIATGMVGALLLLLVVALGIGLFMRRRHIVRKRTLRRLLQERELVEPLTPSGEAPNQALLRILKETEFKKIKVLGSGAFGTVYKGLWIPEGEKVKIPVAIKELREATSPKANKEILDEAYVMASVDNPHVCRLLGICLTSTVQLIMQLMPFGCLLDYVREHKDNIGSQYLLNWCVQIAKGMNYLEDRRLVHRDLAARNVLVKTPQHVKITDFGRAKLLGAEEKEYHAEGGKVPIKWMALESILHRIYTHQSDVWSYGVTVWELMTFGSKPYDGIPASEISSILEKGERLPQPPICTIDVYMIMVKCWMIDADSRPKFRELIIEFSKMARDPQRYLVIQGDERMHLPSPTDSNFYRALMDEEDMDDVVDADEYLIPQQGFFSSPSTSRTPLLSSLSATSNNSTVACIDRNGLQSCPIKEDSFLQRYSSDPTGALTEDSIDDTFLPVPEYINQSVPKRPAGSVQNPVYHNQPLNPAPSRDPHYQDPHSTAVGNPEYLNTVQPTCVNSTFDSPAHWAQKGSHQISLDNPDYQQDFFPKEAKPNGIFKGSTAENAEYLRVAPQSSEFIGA
Chain of EGFR L858R (P00533 25-1210 L858R): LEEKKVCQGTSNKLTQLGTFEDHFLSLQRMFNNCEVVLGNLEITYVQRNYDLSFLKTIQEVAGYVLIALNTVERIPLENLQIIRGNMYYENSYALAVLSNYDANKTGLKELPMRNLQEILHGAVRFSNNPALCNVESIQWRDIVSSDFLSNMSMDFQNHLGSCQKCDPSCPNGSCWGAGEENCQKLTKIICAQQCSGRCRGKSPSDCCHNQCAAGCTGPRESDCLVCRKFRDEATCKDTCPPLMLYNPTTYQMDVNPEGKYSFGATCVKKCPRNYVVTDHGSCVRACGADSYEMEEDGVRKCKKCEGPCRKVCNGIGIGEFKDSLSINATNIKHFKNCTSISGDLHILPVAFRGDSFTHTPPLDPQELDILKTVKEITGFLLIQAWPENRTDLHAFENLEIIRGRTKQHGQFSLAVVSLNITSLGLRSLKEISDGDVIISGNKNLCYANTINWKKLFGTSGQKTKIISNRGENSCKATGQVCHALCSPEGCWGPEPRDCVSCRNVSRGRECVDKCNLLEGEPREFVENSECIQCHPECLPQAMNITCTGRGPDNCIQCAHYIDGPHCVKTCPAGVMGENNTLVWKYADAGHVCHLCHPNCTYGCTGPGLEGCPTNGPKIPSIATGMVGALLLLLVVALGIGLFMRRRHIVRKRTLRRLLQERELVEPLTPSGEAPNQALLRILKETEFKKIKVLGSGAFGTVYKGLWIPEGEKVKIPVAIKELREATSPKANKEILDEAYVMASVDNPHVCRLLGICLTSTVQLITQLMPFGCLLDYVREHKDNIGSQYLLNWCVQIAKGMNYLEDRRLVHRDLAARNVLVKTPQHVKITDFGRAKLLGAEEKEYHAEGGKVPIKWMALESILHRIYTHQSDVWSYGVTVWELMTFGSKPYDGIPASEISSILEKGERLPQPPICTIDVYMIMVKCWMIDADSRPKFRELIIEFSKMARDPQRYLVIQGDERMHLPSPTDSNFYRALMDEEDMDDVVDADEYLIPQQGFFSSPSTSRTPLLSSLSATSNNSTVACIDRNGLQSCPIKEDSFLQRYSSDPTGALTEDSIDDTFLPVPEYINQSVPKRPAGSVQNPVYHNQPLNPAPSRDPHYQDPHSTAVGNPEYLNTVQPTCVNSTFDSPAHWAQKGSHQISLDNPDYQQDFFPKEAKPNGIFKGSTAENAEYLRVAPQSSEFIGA
Chain of EGFR (d746-750)-T790M (P00533 other isoform, or with tags, fused parts or gaps T790M/del 1-668/del 746-750 limits assumed): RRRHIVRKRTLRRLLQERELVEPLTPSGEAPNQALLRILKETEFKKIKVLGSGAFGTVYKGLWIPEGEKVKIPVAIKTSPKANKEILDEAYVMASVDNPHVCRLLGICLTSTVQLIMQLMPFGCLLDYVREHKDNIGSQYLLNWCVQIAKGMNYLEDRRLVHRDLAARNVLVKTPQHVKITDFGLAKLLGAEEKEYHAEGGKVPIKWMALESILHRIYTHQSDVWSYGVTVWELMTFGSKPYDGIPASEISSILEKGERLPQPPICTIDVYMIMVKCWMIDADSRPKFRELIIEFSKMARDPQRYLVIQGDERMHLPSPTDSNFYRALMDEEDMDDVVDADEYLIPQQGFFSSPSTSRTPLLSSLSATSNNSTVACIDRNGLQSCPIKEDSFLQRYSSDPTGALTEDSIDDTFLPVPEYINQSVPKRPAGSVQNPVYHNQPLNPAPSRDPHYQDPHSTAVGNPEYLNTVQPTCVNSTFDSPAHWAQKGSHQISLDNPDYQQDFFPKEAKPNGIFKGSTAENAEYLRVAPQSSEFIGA
Chain of EGFR T790M (P00533 25-1210 T790M): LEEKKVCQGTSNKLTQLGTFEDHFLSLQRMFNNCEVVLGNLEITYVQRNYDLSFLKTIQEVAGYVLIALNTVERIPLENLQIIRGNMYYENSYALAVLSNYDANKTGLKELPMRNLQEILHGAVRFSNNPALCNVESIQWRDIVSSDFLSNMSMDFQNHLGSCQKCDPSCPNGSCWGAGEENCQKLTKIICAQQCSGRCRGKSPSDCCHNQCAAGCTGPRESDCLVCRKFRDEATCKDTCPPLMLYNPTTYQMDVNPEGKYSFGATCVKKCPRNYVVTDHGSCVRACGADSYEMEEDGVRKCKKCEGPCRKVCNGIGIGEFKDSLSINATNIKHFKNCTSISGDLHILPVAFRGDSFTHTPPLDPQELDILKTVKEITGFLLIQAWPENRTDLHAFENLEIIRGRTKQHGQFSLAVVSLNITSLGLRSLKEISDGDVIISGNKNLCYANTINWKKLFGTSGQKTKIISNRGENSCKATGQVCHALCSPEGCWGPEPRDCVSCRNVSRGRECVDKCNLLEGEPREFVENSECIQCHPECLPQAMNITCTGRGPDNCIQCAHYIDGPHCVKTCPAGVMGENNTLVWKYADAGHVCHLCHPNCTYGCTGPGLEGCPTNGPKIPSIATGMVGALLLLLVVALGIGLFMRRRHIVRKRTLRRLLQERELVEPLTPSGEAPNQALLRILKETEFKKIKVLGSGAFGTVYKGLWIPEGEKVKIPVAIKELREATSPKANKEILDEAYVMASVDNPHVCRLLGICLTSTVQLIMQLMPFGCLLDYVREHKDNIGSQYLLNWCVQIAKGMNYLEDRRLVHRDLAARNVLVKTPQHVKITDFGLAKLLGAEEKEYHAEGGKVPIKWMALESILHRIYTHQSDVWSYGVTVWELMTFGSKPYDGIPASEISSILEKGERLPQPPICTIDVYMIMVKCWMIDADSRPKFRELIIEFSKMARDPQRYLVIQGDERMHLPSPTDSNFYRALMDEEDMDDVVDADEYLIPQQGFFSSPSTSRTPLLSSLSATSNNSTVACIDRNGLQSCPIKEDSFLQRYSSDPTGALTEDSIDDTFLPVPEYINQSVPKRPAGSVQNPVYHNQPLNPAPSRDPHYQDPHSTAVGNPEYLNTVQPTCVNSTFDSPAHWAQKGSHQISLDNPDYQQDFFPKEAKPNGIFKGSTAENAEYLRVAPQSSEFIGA

In general, AUC(0-t) refers to the area under the concentration-time curve up to a stated or last time point. Low values mean less exposure, high ones more exposure. In general, clearance refers to the volume of plasma or blood freed of the substance per unit of time. Low readings indicate inefficient removal, high ones efficient removal. The term bioavailability denotes dose-corrected exposure relative to a reference, in per cent. Broadly, the IC50 is the midpoint of a concentration-inhibition curve. As for `C=CC(=O)Nc1cccc(Nc2nc(Nc3ccc(N4CCN(C(C)=O)CC4)cc3OC)ncc2C(F)(F)F)c1` [CO-1686, reference compound], the AUC(0-t) worked out at 4070 ng·h/mL in data set [1] (iv, 5 mg/kg) and 2380 ng·h/mL in data set [1] (po, 13.2 mg/kg). In data set [1] (iv, 5 mg/kg), this compound gave a clearance of 20.5 mL/min/kg. In addition, in data set [1] (po, 13.2 mg/kg, read-out: F (absolute bioavailability)), the bioavailability worked out at 22.1%. Further, the IC50 in data set [2] (Table 9) is 107 nM; in [2] (Table 10, unit inferred) it was 465 nM; in [4] (Table 9) it was 911 nM; in [4] (Table 10, unit inferred), 2250 nM. Also, the “TGI (tumor growth-inhibiting rate)” value in data set [3] (Table 17, 30 mg/kg) is 38.8%; in data set [3] (Table 17, 100 mg/kg), 71.2%; in [3] (Table 18, 10 mg/kg, QD × 18), 30.8%; in data set [3] (Table 18, 30 mg/kg, QD × 18), 55.4%. For the same compound, the “TV (tumor volume)” value in data set [3] (Table 17, 30 mg/kg, 19 days after inoculation) was determined as 666 ± 30 mm^3; in data set [3] (Table 17, 100 mg/kg, 19 days after inoculation), 317 ± 44 mm^3; in data set [3] (Table 18, 10 mg/kg, QD × 18, 23 days after inoculation), 729 ± 78 mm^3; in [3] (Table 18, 30 mg/kg, QD × 18, 23 days after inoculation) it was 485 ± 65 mm^3. Besides, the “Body weight After administration” value in data set [3] (Table 17, 30 mg/kg) amounted to 22.1 ± 0.3 g; in [3] (Table 17, 100 mg/kg) it was 21.5 ± 0.5 g; in data set [3] (Table 18, 10 mg/kg, QD × 18), 22.4 ± 0.5 g; in data set [3] (Table 18, 30 mg/kg, QD × 18), 22.4 ± 0.3 g. For the same compound, the “Body weight Before administration” value in data set [3] (Table 17, 30 mg/kg) is recorded as 20.6 ± 0.3 g; in [3] (Table 17, 100 mg/kg), 20.6 ± 0.4 g; in [3] (Table 18, 10 mg/kg, QD × 18), 20.7 ± 0.4 g; in data set [3] (Table 18, 30 mg/kg, QD × 18), 21.8 ± 0.3 g.

Take `C=CC(=O)Nc1cccc(Nc2nc(Nc3ccc(C4CCN(C)C(=O)C4)cc3OC)ncc2C(F)(F)F)c1` (centres unmarked) [Compound 21, N-(3-((2-((2-methoxy-4-(1-methyl-2-oxopiperidin-4-yl)phenyl)amino)-5-(trifluoromethyl)pyrimidin-4-yl)amino)phenyl)acrylamide]: the IC50 on EGFR L858R (Km ATP) came to 35 nM; on EGFR T790M (Km ATP), 3.5 nM; on EGFR T790M-L858R (Km ATP) it was 3.3 nM; in [2] (Table 10, unit inferred), 211 nM; on EGFR (d746-750) (Km ATP) it was 28 nM; in data set [4] (Table 10, unit inferred), 2500 nM. The IC50 was determined as 3.5 nM at EGFR (d746-750)-T790M (Km ATP, read-out: IC50 EGFR (d746-750)-T790M) and 236 nM on wild-type EGFR (WT EGFR). Also, on EGFR L858R (ratio of IC50), the “Selectivity WT/L858R” value was determined as 6.7. The “Selectivity (WT/T790M)” value on EGFR T790M (ratio of IC50) is given as 67.4. The “Selectivity WT/T790M-L858R” value at EGFR T790M-L858R (ratio of IC50) was 71.5. In addition, the “Selectivity (A431/H1975)” value in data set [2] (Table 10, ratio of IC50) was 11.9. Further, the “Selectivity WT/d746-750” value on EGFR (d746-750) (ratio of IC50) is listed as 8.4. Also, the “Selectivity WT/(d746-750)-T790M” value at EGFR (d746-750)-T790M (ratio of IC50) is given as 67.4.
